Legend:
[1] = tested on: HCT116 cells overexpressing the nitroreductase NfsA from E. coli; assay: Inhibition of cell proliferation, low cell density IC50 assay; format: cell-based, human; conditions: for IC50: Homo sapiens, HCT-116, 4 hour drug exposure, washing and regrowth for 5 days; for WT:NfsA: WT IC50/NfsA IC50
Protocol: IC50 values were determined as the concentration of prodrug required to inhibit cell growth by 50% of untreated controls following 4 hour drug exposure, with washing and regrowth for 5 days. WT:NfsA ratios were determined as the WT IC50/NfsA IC50.

[2] = tested on: NTR over-expressing E. coli SOS-R2; assay: Growth Inhibition assay in 58-membered NTR over-expression library; format: cell-based, Escherichia coli; conditions: 4 h incubation; 400 μM compound 67, 130 μM compound 93, 800 μM compound 97
[3] = biological target: T1, CO-Frp (V.h) (Vibrio harveyi, UniProt Q56691); assay: Initial rate of metabolism by purified recombinant bacterial nitroreductase (NADPH consumption, UV/Vis); format: biochemical; conditions: compound 500 μM, NADPH 200 μM, 10 mM Tris-Cl pH 7.0; μmol NADPH consumed per mg enzyme per minute
T1 construct: made in house
T1 sequence (Q56691 whole entry): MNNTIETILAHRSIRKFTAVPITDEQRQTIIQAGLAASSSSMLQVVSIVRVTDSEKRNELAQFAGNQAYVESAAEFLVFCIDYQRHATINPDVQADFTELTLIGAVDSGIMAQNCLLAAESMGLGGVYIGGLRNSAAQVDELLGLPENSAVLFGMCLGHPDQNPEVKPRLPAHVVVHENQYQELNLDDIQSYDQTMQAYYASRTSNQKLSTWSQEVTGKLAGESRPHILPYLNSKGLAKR
Protocol: (§1) The relative initial rates of reductive metabolism of the nitro moiety of test compounds by bacterial nitroreductase's can be measured experimentally by incubating the test compound at near-saturating concentration (determined empirically) with the purified recombinant bacterial nitroreductase enzymes in the presence of NADPH co-factor. UV/Vis spectroscopy is used to measure consumption of the co-factor, indicating metabolism of the test compound by the nitroreductase.
(§2) Compounds 67, 93 and 97 (500 μM) were added to NADPH (200 μM) in 10 mM Tris-Cl pH 7.0. Reactions were initiated by enzyme addition (between 5 and 20 μg per reaction). Rates represent μmol of NADPH consumed per mg enzyme added per minute.

[4] = biological target: T2, NfsA (E.c) (Escherichia coli, UniProt P17117); assay: as above; format: biochemical; conditions: compound 500 μM, NADPH 200 μM, 10 mM Tris-Cl pH 7.0; μmol NADPH consumed per mg enzyme per minute
T2 construct: made in house
T2 sequence (P17117 whole entry): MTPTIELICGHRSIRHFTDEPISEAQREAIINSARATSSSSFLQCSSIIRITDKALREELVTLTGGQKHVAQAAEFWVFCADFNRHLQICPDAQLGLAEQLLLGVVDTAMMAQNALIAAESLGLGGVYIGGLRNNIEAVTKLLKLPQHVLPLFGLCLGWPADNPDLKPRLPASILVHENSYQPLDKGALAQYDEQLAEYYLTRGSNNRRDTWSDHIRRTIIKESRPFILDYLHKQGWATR
Protocol: as §1, §2

[5] = biological target: T3, NfrA (B.s) (Bacillus subtilis, UniProt P39605); assay: as above; format: biochemical; conditions: compound 500 μM, NADPH 200 μM, 10 mM Tris-Cl pH 7.0; μmol NADPH consumed per mg enzyme per minute
T3 construct: made in house
T3 sequence (P39605 whole entry): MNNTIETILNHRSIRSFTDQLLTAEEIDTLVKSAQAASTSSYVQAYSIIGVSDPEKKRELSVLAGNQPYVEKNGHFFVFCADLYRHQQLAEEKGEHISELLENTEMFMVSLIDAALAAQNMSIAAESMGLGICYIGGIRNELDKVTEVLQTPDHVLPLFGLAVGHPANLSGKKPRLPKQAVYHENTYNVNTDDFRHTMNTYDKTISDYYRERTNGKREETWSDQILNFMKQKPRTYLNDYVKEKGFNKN
Protocol: as §1, §2

[6] = tested on: bacterial nitroreductase over-expressing E. coli strains; assay: IC50 (turbidity) in selected NTR over-expressing library strains; format: cell-based, Escherichia coli; conditions: 4 h post-challenge, serial dilution
Protocol: FIG. 2.3 illustrates the IC50 of compound 67 for selected NTR library strains (i.e. the concentration of compound 67 that yielded only 50% turbidity relative to an unchallenged control 4 h post-challenge, in replicate cultures across a serial dilution of compound 67). The strains selected were all those observed to have SOS activity above the empty plasmid control (“Empty”) in response to challenge with compound 67 as illustrated in FIG. 2(B), plus NfsB (E.c) as a negative control. For the IC50 assays, 100 μl of overnight cultures were used to inoculate 2 ml M63 minimal medium supplemented with 100 μg·ml^−1 ampicillin and 50 μM IPTG and incubated at 30° C., 200 rpm for 3.5 h. 40 μL aliquots from each culture were then added to individual wells of a sterile 384 well plate, each already containing 40 μl of ampicillin and IPTG-supplemented M63 medium and a dilution series of compound 67 as indicated on the X-axis of panel A. A. Raw growth curves. Each NTR over-expression strain was tested at least in duplicate (independent replicates), with the exception of NfsB (E.c), which was only measured once. Culture turbidity was monitored by optical density at 600 nm 4 h post-challenge. B. IC50 values calculated by comparison of the challenged cells with the unchallenged control for each strain, after subtracting the initial absorbance values (t=0 h), using SigmaPlot 10.0 (Systat Software Inc., Richmond, Calif.). Errors are 1 standard error of the mean (SEM).
(§3) FIG. 2.4 illustrates the IC50 of compound 93 for selected NTR library strains. […] B. IC50 values calculated by comparison of the challenged cells with the unchallenged control for each strain, after subtracting the initial absorbance values (t=0 h), using SigmaPlot 10.0 (Systat Software Inc., Richmond, Calif.). […]
as §3, with “2.5” for “2.4”, “97” for “93”

| Compound | IC50 [1] [µM] | WT:NfsA [1] | Reductive metabolism at the nitro moiety by NTR library members (NfsA and NfsB families) [2] | Rate of metabolism by CO-Frp (V.h) [3] [µmol/min/mg] | Rate of metabolism by NfsA (E.c) [4] [µmol/min/mg] | Rate of metabolism by NfrA (B.s) [5] [µmol/min/mg] | Inhibition of bacterial cell growth in NTR over-expressing strains compared to controls [6] |
| --- | --- | --- | --- | --- | --- | --- | --- |
| Cc1ncc([N+](=O)[O-])n1CC(=O)NCC(F)(F)C(F)(F)F [Compound 67, 2-(2-methyl-5-nitro-1H-imidazol-1-yl)-N-(2,2,3,3,3-pentafluoropropyl)acetamide] | 19 | 332 | readily reductively metabolised at the nitro moiety by the majority of NfsA family members along with a subset of the NfsB family | 1.1 | 2.7 | 1.7 | Inhibition of bacterial cell growth was selectively observed |
| O=C(Cn1cnc([N+](=O)[O-])c1)NCC(F)(F)C(F)(F)F [Compound 93, 2-(4-nitro-1H-imidazol-1-yl)-N-(2,2,3,3,3-pentafluoropropyl)acetamide] | 14.5 | 100 | selectively reductively metabolised at the nitro moiety by the NfsA family | 12.2 | 7.6 | 7.5 | Inhibition of bacterial cell growth was selectively observed |

Reference: patent publication US20150010474A1, “Compounds And Methods For Selective Imaging And/Or Ablation” (Auckland Uniservices Limited, priority 2011, published 2015)
